Assay results published in EP2468728A1, “2-(1-phenyl-4,5,6,7-tetrahydro-1H-indazol-4-YL)ethylamine derivatives useful as sigma receptor inhibitors” (Laboratorios del. Dr. Esteve, S.A., priority 2010, dated 2012).

Biological target: σ1-receptor (Cavia porcellus, UniProt Q60492)
Experiment: sigma-1 receptor binding assay, [3H](+)-pentazocine, brain membranes
Details: 1µM compound; [3H](+)-pentazocine 0.5 nM; guinea pig brain membranes; 37°C for 150 min; read-out: binding sigma-1 % Inh (1µM)
Experimental: Some representative compounds of the invention were tested for their activity as sigma (sigma-1) inhibitors. The following protocols were followed:
Brain membrane preparation and binding assays for the σ1-receptor were performed as described (DeHaven-Hudkins et al., 1992) with some modifications. In brief, guinea pig brains were homogenized in 10 vols. (w/v) of Tris-HCl 50 mM 0.32 M sucrose, pH 7.4, with a Kinematica Polytron PT 3000 at 15000 r.p.m. for 30 s. The homogenate was centrifuged at 1000g for 10 min at 4°C and the supernatants collected and centrifuged again at 48000g for 15 min at 4°C. The pellet was resuspended in 10 volumes of Tris-HCl buffer (50 mM, pH 7.4), incubated at 37°C for 30 min, and centrifuged at 48000g for 20 min at 4°C. Following this, the pellet was resuspended in fresh Tris-HCl buffer (50 mM, pH 7.4) and stored on ice until use.
Each assay tube contained 10 µL of [^3H](+)-pentazocine (final concentration of 0.5 nM), 900 µL of the tissue suspension to a final assay volume of 1 mL and a final tissue concentration of approximately 30 mg tissue net weight/mL. Non-specific binding was defined by addition of a final concentration of 1 µM haloperidol. All tubes were incubated at 37°C for 150 min before termination of the reaction by rapid filtration over Schleicher & Schuell GF 3362 glass fibre filters [previously soaked in a solution of 0,5% polyethylenimine for at least 1 h]. Filters were then washed with four times with 4 mL of cold Tris-HCl buffer (50 mM, pH 7.4). Following addition of scintillation cocktail, the samples were allowed to equilibrate overnight. The amount of bound radioactivity was determined by liquid scintillation spectrometry using a Wallac Winspectral 1414 liquid scintillation counter. Protein concentrations were determined by the method of Lowry et al. (1951).

Chain of σ1-receptor (Q60492 whole entry): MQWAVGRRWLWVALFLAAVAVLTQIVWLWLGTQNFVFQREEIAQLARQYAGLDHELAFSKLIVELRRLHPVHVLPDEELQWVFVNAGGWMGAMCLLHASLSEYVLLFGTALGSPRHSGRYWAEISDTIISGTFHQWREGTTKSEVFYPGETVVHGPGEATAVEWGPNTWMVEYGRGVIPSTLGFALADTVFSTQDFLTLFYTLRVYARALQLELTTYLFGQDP

[O-][N+]1(CCC2CCCc3c2cnn3-c2ccccc2)CCOCC1 (stereo not drawn) [Example 1, 4-(2-(1-phenyl-4,5,6,7-tetrahydro-1H-indazol-4-yl)ethyl)morpholine N-oxide]
inhibition at 1 µM: 60%

[O-][N+]1(CC[C@@H]2CCCc3c2cnn3-c2ccccc2)CCOCC1 [Example 5, (S)-4-(2-(1-phenyl-4,5,6,7-tetrahydro-1H-indazol-4-yl)ethyl)morpholine N-oxide]
inhibition at 1 µM: 98%

[O-][N+]1(CC[C@H]2CCCc3c2cnn3-c2ccccc2)CCOCC1 [Example 3, (R)-4-(2-(1-phenyl-4,5,6,7-tetrahydro-1H-indazol-4-yl)ethyl)morpholine N-oxide]
inhibition at 1 µM: 76.4%
